The test system of assay [1] is TNFα. The assay can be described thus: TNFα inhibition, LPS-induced PBMCs or CD14+ monocytes, Meso Scale assay. In kind it is cell-based. Particulars: LPS 100 ng/mL 18-24 h, read-out: % Inhibition compared to DMSO, TNFα; for inhibition at 1 µM: tested at 1 μM; for inhibition at 10 µM: tested at 10 μM. An outline of the steps: (§1)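 Human PBMCs or CD14+ mobilized peripheral blood monocytes, 200,000 cells/well, pretreated 1 h with compound at 1 μM or 10 μM, then stimulated with 100 ng/mL LPS for 18-24 h. Supernatant IL-1β, IL-6 and TNFα measured by Meso Scale assay against DMSO controls.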

Assay [2] relates to IL-6. The assay can be described thus: IL-6 inhibition, LPS-induced PBMCs or CD14+ monocytes, Meso Scale assay. In kind it is cell-based. The settings on record: LPS 100 ng/mL 18-24 h, read-out: % Inhibition compared to DMSO, IL-6; for inhibition at 1 µM: tested at 1 μM; for inhibition at 10 µM: tested at 10 μM. An outline of the steps: as §1
The test system of assay [3] is IL-2. The experiment in a line: IL-2 inhibition assay, anti-CD3 (OKT3) stimulated PBMCs, Mesoscale IL-2 analysis. In kind it is cell-based, human. The settings on record: Homo sapiens, PBMC, PBMCs on anti-CD3, 24 h, fold difference from DMSO control, read-out: IL-2, % Induction compared to DMSO. An outline of the steps:
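PBMCs (3-4 million cells/mL) were added with compound to plates precoated with 1 μg/mL anti-CD3 OKT3 and incubated 24 h. Supernatant IL-2 was quantified by Mesoscale, expressed as fold difference versus DMSO control and binned: A ≤0.5, B 0.5–1, C 1–<1.5, D ≥1.5.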

Assay [4] deals with T1, PDE6D (Homo sapiens, UniProt O43924+Q96SW2).
T1 construct: endogenous in cells; host or cells: MV-4-11
T1 sequence (O43924 whole entry): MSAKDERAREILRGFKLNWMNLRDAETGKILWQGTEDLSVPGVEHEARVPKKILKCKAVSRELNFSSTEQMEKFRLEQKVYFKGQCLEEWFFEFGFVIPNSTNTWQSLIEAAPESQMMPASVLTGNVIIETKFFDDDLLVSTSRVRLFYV
T1 sequence (Q96SW2 whole entry): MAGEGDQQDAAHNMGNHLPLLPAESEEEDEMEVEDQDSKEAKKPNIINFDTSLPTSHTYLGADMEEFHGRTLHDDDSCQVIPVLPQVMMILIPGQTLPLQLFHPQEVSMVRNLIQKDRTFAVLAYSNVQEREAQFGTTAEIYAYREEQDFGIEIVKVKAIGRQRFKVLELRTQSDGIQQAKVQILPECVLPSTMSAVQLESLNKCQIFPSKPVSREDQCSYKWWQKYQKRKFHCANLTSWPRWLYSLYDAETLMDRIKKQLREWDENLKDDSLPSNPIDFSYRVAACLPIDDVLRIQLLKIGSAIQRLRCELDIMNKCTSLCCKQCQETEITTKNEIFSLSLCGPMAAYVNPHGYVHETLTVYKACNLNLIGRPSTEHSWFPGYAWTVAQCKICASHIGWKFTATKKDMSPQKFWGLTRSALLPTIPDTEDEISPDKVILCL
T1 sequence (Q16531 whole entry partner): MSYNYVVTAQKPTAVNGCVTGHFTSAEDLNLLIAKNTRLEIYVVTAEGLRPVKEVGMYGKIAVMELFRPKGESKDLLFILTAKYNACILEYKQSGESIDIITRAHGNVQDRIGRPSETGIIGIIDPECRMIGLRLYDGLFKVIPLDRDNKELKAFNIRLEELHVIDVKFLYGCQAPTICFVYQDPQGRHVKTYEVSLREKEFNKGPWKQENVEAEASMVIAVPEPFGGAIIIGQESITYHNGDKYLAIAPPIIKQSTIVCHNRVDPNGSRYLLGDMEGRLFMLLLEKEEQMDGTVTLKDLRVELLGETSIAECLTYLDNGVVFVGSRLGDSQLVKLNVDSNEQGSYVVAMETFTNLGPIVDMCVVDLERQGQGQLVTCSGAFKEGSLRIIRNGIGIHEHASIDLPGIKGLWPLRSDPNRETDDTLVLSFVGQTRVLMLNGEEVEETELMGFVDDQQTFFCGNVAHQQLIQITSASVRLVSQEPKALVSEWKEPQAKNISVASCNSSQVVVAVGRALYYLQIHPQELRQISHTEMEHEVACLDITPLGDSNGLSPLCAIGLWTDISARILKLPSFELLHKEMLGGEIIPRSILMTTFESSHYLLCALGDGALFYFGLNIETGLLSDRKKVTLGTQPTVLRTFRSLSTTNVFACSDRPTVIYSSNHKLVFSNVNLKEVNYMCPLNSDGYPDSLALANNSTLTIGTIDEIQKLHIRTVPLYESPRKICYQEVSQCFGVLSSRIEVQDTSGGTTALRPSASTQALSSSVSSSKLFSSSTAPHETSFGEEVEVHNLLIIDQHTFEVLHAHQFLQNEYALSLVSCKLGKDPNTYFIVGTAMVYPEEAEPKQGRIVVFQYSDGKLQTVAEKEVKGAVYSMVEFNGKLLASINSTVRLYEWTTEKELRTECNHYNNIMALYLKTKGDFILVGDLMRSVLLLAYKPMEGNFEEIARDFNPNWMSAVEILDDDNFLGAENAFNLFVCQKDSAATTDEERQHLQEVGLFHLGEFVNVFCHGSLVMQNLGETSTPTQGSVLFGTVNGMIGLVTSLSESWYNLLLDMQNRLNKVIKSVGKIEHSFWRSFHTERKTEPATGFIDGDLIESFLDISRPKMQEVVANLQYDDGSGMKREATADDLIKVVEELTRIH
The experiment in a line: Western blot, degradation of cellular PDE6D in MV-4-11 cells. It counts as cell-based. The settings on record: MV4-11; tested at 1 μM, MV-4-11 cells, 6-8 hours; read-out: % Degradation compared to DMSO, PDE6D. Put shortly:
(§2)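 MV-4-11 cells at about 10^6 cells/mL treated with DMSO or compound for 6–8 h. RIPA whole-cell lysates probed by Western blot for PDE6D, Ikaros and CK1α, with β-actin, using fluorescent secondary detection. % degradation binned: A <25%, B 25–<50%, C 50–<75%, D ≥75%.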

For assay [5], the target named is T2, CK1α (Homo sapiens, UniProt P48729+Q96SW2).
T2 construct: endogenous in cells; host or cells: MV-4-11
T2 sequence (P48729 whole entry): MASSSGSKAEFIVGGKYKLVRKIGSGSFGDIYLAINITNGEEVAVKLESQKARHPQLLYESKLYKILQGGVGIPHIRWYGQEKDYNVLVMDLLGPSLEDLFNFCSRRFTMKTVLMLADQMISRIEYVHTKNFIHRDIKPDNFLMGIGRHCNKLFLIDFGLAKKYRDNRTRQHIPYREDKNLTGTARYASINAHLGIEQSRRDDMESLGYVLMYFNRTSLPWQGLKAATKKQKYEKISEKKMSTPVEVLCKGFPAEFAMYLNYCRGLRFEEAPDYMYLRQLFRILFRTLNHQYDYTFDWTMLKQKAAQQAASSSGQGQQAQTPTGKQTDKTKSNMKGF
T2 sequence (Q96SW2 whole entry): as the sequence (Q96SW2 whole entry) above
T2 sequence (Q16531 whole entry partner): as the sequence (Q16531 whole entry partner) above
The experiment in a line: Western blot, degradation of cellular CK1α in MV-4-11 cells. The settings on record: MV4-11, tested at 1 μM, 6-8 hours, read-out: % Degradation compared to DMSO, CK1α. It counts as cell-based. Put shortly: as §2

Assay [6] has as its system IL-1β. The assay can be described thus: IL-1β inhibition, LPS-induced PBMCs or CD14+ monocytes, Meso Scale assay. In kind it is cell-based. The settings on record: LPS 100 ng/mL 18-24 h, read-out: % Inhibition compared to DMSO, IL-1β; for inhibition at 1 µM: tested at 1 μM; for inhibition at 10 µM: tested at 10 μM. An outline of the steps:
as §1

Assay [7] addresses T3, Ikaros (Homo sapiens, UniProt Q13422+Q96SW2).
T3 construct: endogenous in cells; host or cells: MV-4-11
The experiment in a line: Western blot, degradation of cellular Ikaros in MV-4-11 cells. In kind it is cell-based. The settings on record: MV4-11, tested at 1 μM, 6-8 hours, read-out: % Degradation compared to DMSO, Ikaros. Put shortly:
as §2

T3 sequence (Q13422 whole entry): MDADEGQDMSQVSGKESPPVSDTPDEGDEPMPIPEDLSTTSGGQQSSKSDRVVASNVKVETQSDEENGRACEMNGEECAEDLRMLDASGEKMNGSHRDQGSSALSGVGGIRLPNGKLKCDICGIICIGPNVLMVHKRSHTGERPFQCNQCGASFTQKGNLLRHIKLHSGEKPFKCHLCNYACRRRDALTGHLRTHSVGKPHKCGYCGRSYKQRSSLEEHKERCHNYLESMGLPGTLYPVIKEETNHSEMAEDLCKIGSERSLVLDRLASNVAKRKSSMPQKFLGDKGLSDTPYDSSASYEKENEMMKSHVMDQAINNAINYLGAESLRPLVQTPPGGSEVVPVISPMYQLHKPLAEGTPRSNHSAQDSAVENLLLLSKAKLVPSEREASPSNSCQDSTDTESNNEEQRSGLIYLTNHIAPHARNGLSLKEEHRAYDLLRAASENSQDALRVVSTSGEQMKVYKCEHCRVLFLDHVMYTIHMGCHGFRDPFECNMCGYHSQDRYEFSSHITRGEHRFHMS
T3 sequence (Q96SW2 whole entry): as the sequence (Q96SW2 whole entry) above
T3 sequence (Q16531 whole entry partner): as the sequence (Q16531 whole entry partner) above

On to `O=C1CCC(N2C(=O)c3cc(F)cc(C4CCCC4)c3C2=O)C(=O)N1` (centres unmarked) [Compound 12], for which the inhibition at 1 µM in assay [1] is 10 to 25%; in assay [2], less than 10%; in assay [6], less than 10%. Also, the inhibition at 10 µM in assay [1] was 25 to 50%; in assay [2], less than 10%; in assay [6], less than 10%. Moreover, the fold induction at 1 µM in assay [3] lay within 0.5 to 1. The fold induction at 10 µM in assay [3] lay in the range of 0.5 to 1. In addition, the Dmax at 1 µM in assay [4] is not below 75%; in assay [5] it was less than 25%; in assay [7] it was less than 25%.
`O=C1CCC(N2Cc3c(cc(F)cc3C3CC4CCC3C4)C2=O)C(=O)N1` (centres unmarked) [Compound 25]: the inhibition at 1 µM in assay [1] is 10 to 25%; in assay [2], less than 10%; in assay [6], less than 10%. In addition, the inhibition at 10 µM in assay [1] is 10 to 25%; in assay [2], less than 10%; in assay [6], 25 to 50%. Further, the fold induction at 1 µM in assay [3] lay in the range of 1 to 1.5. Further, the fold induction at 10 µM in assay [3] lay in the range of 0.5 to 1. Moreover, the results for the Dmax at 1 µM in assay [4], in assay [5] and in assay [7] were 50 to 75%, 25 to 50% and 25 to 50%, respectively.
For `O=C1CCC(N2C(=O)c3cccc(C4CCCC4)c3C2=O)C(=O)N1` (centres unmarked) [Compound 10, 4-cyclopentyl-2-(2,6-dioxopiperidin-3-yl)isoindoline-1,3-dione], the inhibition at 1 µM in assay [1] is 10 to 25%; in assay [2], less than 10%; in assay [6] it was less than 10%. Also, the inhibition at 10 µM in assay [1] is more than 50%; in assay [2] it was 10 to 25%; in assay [6], 10 to 25%. The fold induction at 1 µM in assay [3] fell in the range of 1 to 1.5. Further, in assay [3], the fold induction at 10 µM fell in the range of 0.5 to 1. Besides, the Dmax at 1 µM in assay [4] is 50 to 75%; in assay [5], less than 25%; in assay [7], 25 to 50%.
Consider `C[C@H](c1cc(F)cc2c1CN(C1CCC(=O)NC1=O)C2=O)C(F)(F)F` (some centres unmarked) [Compound 23], for which the inhibition at 1 µM in assay [1], in assay [2] and in assay [6] was less than 10% throughout. For the same molecule, the figures for the inhibition at 10 µM in assay [1], in assay [2] and in assay [6] were 25 to 50%, less than 10% and less than 10%, respectively. For the same molecule, in assay [3], the fold induction at 1 µM was 0.5 to 1. The fold induction at 10 µM in assay [3] was in the range of 0.5 to 1. Also, the Dmax at 1 µM in assay [4] was 25 to 50%; in assay [5], 50 to 75%; in assay [7] it was less than 25%.

The values are drawn from patent US11352338B2, “Substituted isoindolinones” (BioTheryX, Inc., priority 2018, dated 2022).
